We go through 41 molecules from patent publication US10829483B2, “Thiophene, manufacturing method thereof, and pharmaceutical application of same” (CSTONE PHARMACEUTICAL (SUZHOU) CO., LTD., priority 2016, dated 2020).

This experiment has as its target URAT-1 (uric acid transporter) (Homo sapiens (Human), UniProt Q96S37). Nature of the experiment: Inhibition of 14C uric acid transport by HEK293 cell line stably transfected with the URAT-1 gene. The experiment is classed as cell-based. The settings on record: URAT-1 (HEK293) cells; 14C-labelled uric acid 50 um, 10 min at 37° C.; read-out: IC50 (inhibition against URAT-1). The procedure:
Determination of the IC50 value of the inhibitory activity of the compound against uric acid reabsorption by the HEK293 cell line stably transfected with the URAT-1 (uric acid transporter) gene.
URAT-1 (HEK293) cell line: the HEK293 cell line stably transfected with the URAT-1 gene
cell culture medium: DMEM culture medium added 10% fetal bovine serum (FBS), 1% sodium pyruvate and […] G418.
Uric acid solution labeled by ^14C.
1) the supernatant of cell culture was aspirated, and cells was washed with 10 mL PBS.
2) preheated trypsin was added into the cell culture flask, and the cell culture flask was rotated to make trypsin covering onto the bottom of cell culture flask equably.
3) the cells were suspended with 10-15 mL of culture medium in each T150 flask, took 0.1 mL of cell suspension and diluted it with two volumes of trypan blue solution to count the cells.
4) cells were diluted to 2.5×10^5/mL with the culture medium, and the diluted cells were added into a rat tail collagen-coated 24-well plate (800 uL/well, 2×10^5 cells/well). The plate was incubated overnight at 37° C. in a 5% CO2 incubator.
1) cells were seeded into 24-well plate, and supernatant was discarded after 16-18 h. The cells were washed twice using 600 ul HBSS buffer.
2) HBSS buffer was removed and 180 ul of HBSS buffer was added into each well again.
1) compounds were dissolved into 100% DMSO, and diluted into 6 concentration points by 3-fold dilution, or into 2 concentration points by 10-fold dilution, and the highest starting concentration was 50 mM.
2) 5 ul DMSO solution in step 1) was transferred into 120 ul of HBSS buffer to make a 25-fold dilution.
3) 10 ul diluted solution in step 2) was added into 24-well plate, and the plate was incubated for 15 min at 37° C. in a 5% CO2 incubator. The final concentration of DMSO is 0.2%. The control well contained 0.2% DMSO without compound.
^14C-labelled uric acid was diluted and added into plate, and the final concentration is 50 um. The plate was incubated for 10 min at 37° C. in a 5% CO2 incubator. After supernatant was discarded, cells were washed with HBSS buffer twice. Cells was lysed with 0.1M NaOH. And then cell lysis solution was collected into liquid scintillation tube and added with liquid scintillation solution. The signal was read by liquid scintillation counter Tri-Carb. e) data analysis URAT-1 inhibition by the treatment of the compounds was analyzed by calculating the percentage of inhibition. Non-linear fitting analysis of percent inhibition (inh %) data using GraphPad Prism software to generate the IC50 value.

Structures are written as SMILES.

URAT-1 (uric acid transporter), sequence (Q96S37 whole entry): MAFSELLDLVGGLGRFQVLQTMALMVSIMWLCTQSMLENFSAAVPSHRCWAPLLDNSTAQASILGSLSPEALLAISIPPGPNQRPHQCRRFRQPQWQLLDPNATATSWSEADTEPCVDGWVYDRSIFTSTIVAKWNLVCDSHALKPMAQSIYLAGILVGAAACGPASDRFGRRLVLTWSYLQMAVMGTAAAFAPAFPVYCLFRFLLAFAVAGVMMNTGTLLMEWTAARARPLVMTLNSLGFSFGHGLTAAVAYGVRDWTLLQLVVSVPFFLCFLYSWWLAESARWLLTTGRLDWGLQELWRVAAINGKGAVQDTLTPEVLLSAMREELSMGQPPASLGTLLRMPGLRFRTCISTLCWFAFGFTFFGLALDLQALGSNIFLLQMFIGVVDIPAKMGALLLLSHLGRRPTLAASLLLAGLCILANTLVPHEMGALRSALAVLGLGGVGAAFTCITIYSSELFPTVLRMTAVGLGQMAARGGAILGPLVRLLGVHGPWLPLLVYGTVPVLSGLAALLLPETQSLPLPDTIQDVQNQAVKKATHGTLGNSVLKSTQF

In the case of `CCOC(=O)CSc1nncn1-c1cc(Br)c(C2CC2)s1` [WX072], the IC50 – broadly, the concentration needed to halve the response being measured – was > 20 µM. As to `CCC(C)(Sc1nnc(Br)n1-c1sc(C2CC2)c2c1CCC2)C(=O)O` (centres unmarked) [WX063], the IC50 is < 2 µM. With `Cc1cc(-n2c(Br)nnc2SCC(=O)O)sc1-c1ccc(F)cc1` [WX082], the IC50 was > 20 µM. Take `O=C(O)CSc1nnc(Br)n1-c1sc(C2CC2)c2c1CCCC2` [WX001]: the IC50 is < 2 µM.

On to `Cc1cc(-n2c(Br)nnc2SC2(C(=O)O)CCCC2)sc1C1CC1` [WX092], for which the IC50 was < 2 µM. Turning to `CCOC(=O)C(C)(C)Sc1nncn1-c1cc(Br)c(C2CC2)s1` [WX076], the IC50 lay within 2 to 20 µM. Regarding `C[C@@H](Sc1nnc(Br)n1-c1sc(C2CC2)c2c1CCCC2)C(=O)O` [WX031], the IC50 was < 2 µM.

Consider `CC1(C)CCc2c(-n3c(Br)nnc3SC(C)(C)C(=O)O)sc(C3CC3)c2C1` [WX035], for which the IC50 is < 2 µM.

For the molecule `COc1ccc(-c2sc(-n3c(Br)nnc3SCC(=O)O)c3c2CCCC3)cc1` [WX017], the IC50 is 2 to 20 µM. Turning to `CC(C)(Sc1nnc(Br)n1-c1sc(C2CC2)c2c1CCC(F)(F)C2)C(=O)O` [WX033], the IC50 is < 2 µM. Turning to `O=C(O)CSc1nnc(Br)n1-c1sc(-c2ccc(F)cc2)c2c1CCC2` [WX038], the half-maximal inhibitory concentration (IC50) is > 20 µM. As to `CCOC(=O)C(C)(C)Sc1nncn1-c1sc(C(=O)NC(O)CCBr)c2c1CCCC2` (centres unmarked) [WX103], the IC50 was 2 to 20 µM. Regarding `COc1ccc(-c2sc(-n3c(Br)nnc3SC(C)(C)C(=O)O)cc2Cl)cc1` [WX071], the IC50 is 2 to 20 µM. Then `CC(C)(Sc1nnc(Br)n1-c1sc(C2CC2)c2c1CCC2)C(=O)O` [WX062], with < 2 µM. Regarding `COC(=O)C(C)(C)Sc1nncn1-c1cc(Br)c(-c2ccccc2)s1` [WX077], the IC50 was > 20 µM.

Consider `O=C(O)C1(Sc2nnc(Br)n2-c2cc(Cl)c(C3CC3)s2)CCCC1` [WX069], for which the IC50 is < 2 µM. As for `O=C(O)CSc1nncn1-c1sc(-c2cc(F)cc(F)c2)c2c1CCCC2` [WX022], the IC50 was > 20 µM. For `COc1ccc(-c2sc(-n3c(Br)nnc3SCC(=O)O)c3c2CCC3)cc1` [WX043] the value was > 20 µM. `CN(C)c1ccc(-c2sc(-n3cnnc3SC(C)(C)C(=O)O)c3c2CCCC3)cc1Br` [WX023]: the 50% inhibitory concentration (IC50) fell in the range of 2 to 20 µM. Consider `Cc1cc(-n2c(Br)nnc2SCC(=O)O)sc1-c1ccccc1` [WX079], for which the IC50 lay within 2 to 20 µM. Regarding `O=C(O)CSc1nncn1-c1sc(-c2ccc(C(F)(F)F)cc2)c2c1CCC2` [WX051], the IC50 was > 20 µM. `CCC(Sc1nnc(Br)n1-c1cc(C)c(C2CC2)s1)C(=O)O` (centres unmarked) [WX091]: the IC50 is < 2 µM. Then `Cc1ccc(-c2sc(-n3cnnc3SCC(=O)O)c3c2CCC3)cc1` [WX050], with > 20 µM; and `O=C(O)CSc1nnc(Br)n1-c1sc(-c2cccc(Cl)c2)c2c1CCC2` [WX045], with > 20 µM; and `CC1(C)Cc2c(C3CC3)sc(-n3c(Br)nnc3SC(C)(C)C(=O)O)c2C1` [WX065], with < 2 µM. On to `COc1ccc(-c2sc(-n3c(Br)nnc3SC(C)C(=O)O)c3c2CCCC3)cc1Br` (centres unmarked) [WX012], for which the IC50 was < 2 µM. As to `CC(C)(Sc1nnc(Br)n1-c1sc(-c2ccc(Cl)c(Cl)c2)c2c1CCCC2)C(=O)O` [WX011], the IC50 is < 2 µM.

With `CC(Sc1nnc(Br)n1-c1sc(-c2ccc(C(F)(F)F)cc2)c2c1CCCC2)C(=O)O` (centres unmarked) [WX014], the IC50 was < 2 µM. For `CC1(C)Cc2c(C3CC3)sc(-n3c(Br)nnc3SC3(C(=O)O)CCC3)c2C1` [WX066] the value was < 2 µM; for `Cc1cc(-n2cnnc2SCC(=O)O)sc1-c1ccc(C(C)(C)C)cc1` [WX098], > 20 µM; for `COc1ccc(-c2sc(-n3c(Br)nnc3SCC(=O)O)cc2C)cc1` [WX083], > 20 µM. `O=C(O)CSc1nncn1-c1sc(-c2ccc(Cl)cc2)c2c1CCC2` [WX054]: the IC50 was > 20 µM. On to `C[C@H](Sc1nnc(Br)n1-c1sc(C2CC2)c2c1CCCC2)C(=O)O` [WX032], for which the IC50 is < 2 µM. `CC(C)(Sc1nnc(Br)n1-c1sc(C2CC2)c2c1CCC2)C(=O)NO` [WX102]: the IC50 lay in the range of 2 to 20 µM. For the molecule `O=C(O)CSc1nncn1-c1sc(-c2ccc(F)c(F)c2)c2c1CCCC2` [WX021], the IC50 is > 20 µM. For the molecule `Cc1cc(-n2c(Br)nnc2SC(C(=O)O)c2ccccc2)sc1C1CC1` (centres unmarked) [WX090], the IC50 lay in the range of 2 to 20 µM. Take `O=C(O)CSc1nnc(Br)n1-c1sc(-c2cc(F)cc(F)c2)c2c1CCCC2` [WX009]: the IC50 is < 2 µM.

`Cn1cc(-c2sc(-n3c(Br)nnc3SCC(=O)O)c3c2CCC3)cn1` [WX047]: the concentration for half-maximal inhibition (IC50) is > 20 µM. Take `CC(Sc1nnc(Br)n1-c1sc(C2CC2)c2c1CCCC2)C(=O)O` (centres unmarked) [WX026]: the IC50 was < 2 µM. With `CC(C)(Sc1nnc(Br)n1-c1sc(-c2ccc(C(F)(F)F)cc2)c2c1CCCC2)C(=O)O` [WX010], the IC50 is 2 to 20 µM.

`COC(=O)CSc1nncn1-c1cc(Br)c(-c2ccccc2)s1` [WX073]: the IC50 is > 20 µM.
